Data: patent US10947201B2, “Certain chemical entities, compositions, and methods” (NEUPHARMA, INC., priority 2015, dated 2021)

Assays:
EGFR (ErbB1) T790M L858R = target: T1, EGFR (ErbB1) T790M L858R (Homo sapiens, UniProt P00533, L858R/T790M); assay: Z'-LYTE kinase inhibition assay (Invitrogen), EGFR L858R/T790M; format: biochemical; conditions: for inhibition at 0.0137 µM: compound at 13.7 nM, 10 μM of ATP; for inhibition at 0.1 µM: compound at 100 nM, [ATP] = Km
T1 construct: purchased Invitrogen
T1 sequence (P00533 25-1210 T790M/L858R): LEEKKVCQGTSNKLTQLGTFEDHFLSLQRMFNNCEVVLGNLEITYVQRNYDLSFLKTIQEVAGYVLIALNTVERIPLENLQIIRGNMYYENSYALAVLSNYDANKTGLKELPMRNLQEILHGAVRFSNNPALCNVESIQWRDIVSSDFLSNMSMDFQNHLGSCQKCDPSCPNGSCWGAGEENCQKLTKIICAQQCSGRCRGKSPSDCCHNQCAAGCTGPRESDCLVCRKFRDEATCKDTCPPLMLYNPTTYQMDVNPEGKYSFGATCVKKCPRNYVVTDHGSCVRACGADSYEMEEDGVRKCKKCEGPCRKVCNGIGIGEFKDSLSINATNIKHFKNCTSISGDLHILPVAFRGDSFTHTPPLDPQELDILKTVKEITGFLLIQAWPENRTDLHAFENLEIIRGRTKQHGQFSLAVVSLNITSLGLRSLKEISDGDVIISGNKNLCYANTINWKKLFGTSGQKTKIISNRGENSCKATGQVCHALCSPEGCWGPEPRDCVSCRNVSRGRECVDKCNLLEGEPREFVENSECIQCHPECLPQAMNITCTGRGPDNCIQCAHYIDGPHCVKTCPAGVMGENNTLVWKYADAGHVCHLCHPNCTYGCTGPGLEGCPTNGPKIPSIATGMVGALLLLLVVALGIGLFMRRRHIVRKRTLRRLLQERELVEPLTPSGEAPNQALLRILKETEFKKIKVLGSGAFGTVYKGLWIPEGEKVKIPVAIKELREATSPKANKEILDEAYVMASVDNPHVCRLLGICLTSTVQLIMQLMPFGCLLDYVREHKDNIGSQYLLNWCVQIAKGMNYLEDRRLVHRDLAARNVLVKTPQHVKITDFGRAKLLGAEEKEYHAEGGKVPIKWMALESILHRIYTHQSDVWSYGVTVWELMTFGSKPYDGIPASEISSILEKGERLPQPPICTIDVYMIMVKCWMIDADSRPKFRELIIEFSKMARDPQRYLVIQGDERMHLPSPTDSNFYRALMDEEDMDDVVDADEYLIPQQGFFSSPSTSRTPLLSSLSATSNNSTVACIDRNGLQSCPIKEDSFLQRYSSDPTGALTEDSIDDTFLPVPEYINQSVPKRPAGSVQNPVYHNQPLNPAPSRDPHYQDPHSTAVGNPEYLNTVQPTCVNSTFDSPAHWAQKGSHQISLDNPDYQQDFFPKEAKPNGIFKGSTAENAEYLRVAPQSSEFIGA
Experimental: (§1) Inhibitory activities of compounds against BTK, EGFR and EGFR mutants (EGFR L858R/T790M) were measured by Invitrogen using Z′-LYTE® Method as briefly described in the following.
(§2) Test Compounds are screened in 1% DMSO (final) in the well. For 10 point titrations, 3-fold serial dilutions are conducted from the starting concentration. All ATP Solutions are diluted to a 4× working concentration in Kinase Buffer (50 mM HEPES pH 7.5, 0.01% BRIJ-35, 10 mM MgCl2, 1 mM EGTA). Peptide/Kinase Mixtures are diluted to a 2× working concentration in the appropriate Kinase Buffers as described below.
(iv) Peptide/Kinase Mixtures for measurement of EGFR (ErbB1) T790M L858R:
The 2×EGFR (ErbB1) T790M L858R/Tyr 04 mixture is prepared in 50 mM HEPES pH 6.5, 0.01% BRIJ-35, 10 mM MgCl2, 1 mM EGTA, 0.02% NaN3. The final 10 μL Kinase Reaction consists of 0.38-4.22 ng EGFR (ErbB1) T790M L858R and 2 μM Tyr 04 in 50 mM HEPES pH 7.0, 0.01% BRIJ-35, 10 mM MgCl2, 1 mM EGTA, 0.01% NaN3. After the 1 hour Kinase Reaction incubation, 5 μL of a 1:64 dilution of Development Reagent B is added.
(§3) Reaction starts by 30-second shaking of mixture consisting of 2.5 μL 4× test compound, 5 μL 2× kinase reaction mixture and 2.5 μL 4×ATP Solution on Bar-coded Corning, low volume NBS, black 384-well plate (Corning Cat. #3676). Then the mixture is incubated for 60-minute at room temperature for the kinase reaction, followed by addition of 5 μL of a 1:1024 dilution of development reagent A and 30-second plate shake. The mixture is then incubated for another 60-minute at room temperature for development reaction. Finally fluorescence is read by plate reader. […] The scale utilized in Tables 2 and 3 is as follows: ++ more than 50% inhibition and + less than 50% inhibition.
(§4) To determine IC50 of a compound against EGFR or EGFR mutants, a series of concentrations of the compound were tested for the inhibition. IC50 was calculated by plotting the concentration of compound vs the percentage of inhibition in treated wells using GraphPad Prism 5. […] The scale utilized in Table 4 is as follows: ++ less than 100 nM and + greater than 100 nM.

H1975 cells = assay: MTT cell growth inhibition assay, H1975; format: cell-based; conditions: Homo sapiens, NCI-H1975, H1975 cells (EGFR L858R/T790M), 72 h
Experimental: (§5) Inhibition of cell growth by compounds was measured using MTT assay (Mosmann, T., Journal of Immunological Methods, 1983, 65, 55-63). Tumor cell lines were purchased from ATCC (American Type Culture Collection, Manassas, Va.). All cell lines were maintained in RPMI 1640 (Hyclone) supplemented with 10% fetal bovine serum (FBS, Hyclone), glutamine (2 mM, Hyclone), and antibiotics (penicillin 100 U/mL and streptomycin 50 μg/mL) at 37° C. in a humidified atmosphere of 5% CO2 in air. Taxol (as a positive control, Sigma) and compounds were dissolved in DMSO (Sigma), and the final concentration of DMSO in the medium was 1%. Tumor cells were plated in 96-well plates at densities of about 4000 cells/well of a 96-well plate and allowed to adhere/grow for 24 h. They were then treated with various concentrations of drug for 72 h. 3-(4,5-Dimethylthiazol-2-yl)-2,5-diphenyltetrazolium bromide (MTT, Sigma) was used to determine the number of viable cells at the time of compound addition and the number of cells remaining after 72 h compound exposure. The number of cells remaining after 72 h was compared to the number of viable cells at the time of compound addition by measuring the absorbance at 570 nm, allowing for the calculation of growth inhibition.
(§6) All concentrations of compounds were tested in triplicate and controls were averaged over 4 wells. IC50 was calculated by plotting the concentration of compound vs the percentage of inhibition in treated wells using GraphPad Prism 5.
(§7) Tables 5 show IC50 values of several compounds of the invention in A549, A431, H1299, and H1975 human cancer cells. A549 cells have a mutation on KRAS, H3255 cells have L858R mutation, and H1975 cells have double EGFR mutations (L858R/T790M). The scale utilized in Table 5 is as follows: +++ less than 100 nM; ++ between 100 nM and 500 nM; and + greater than 500 nM.

EGFR (ErbB1) = target: T2, EGFR (ErbB1) (Homo sapiens, UniProt P00533); assay: Z'-LYTE kinase inhibition assay (Invitrogen), EGFR; format: biochemical; conditions: for inhibition at 0.041 µM: compound at 41 nM, 10 μM of ATP; for inhibition at 0.1 µM: compound at 100 nM, [ATP] = Km
T2 construct: purchased Invitrogen
T2 sequence (P00533 25-1210): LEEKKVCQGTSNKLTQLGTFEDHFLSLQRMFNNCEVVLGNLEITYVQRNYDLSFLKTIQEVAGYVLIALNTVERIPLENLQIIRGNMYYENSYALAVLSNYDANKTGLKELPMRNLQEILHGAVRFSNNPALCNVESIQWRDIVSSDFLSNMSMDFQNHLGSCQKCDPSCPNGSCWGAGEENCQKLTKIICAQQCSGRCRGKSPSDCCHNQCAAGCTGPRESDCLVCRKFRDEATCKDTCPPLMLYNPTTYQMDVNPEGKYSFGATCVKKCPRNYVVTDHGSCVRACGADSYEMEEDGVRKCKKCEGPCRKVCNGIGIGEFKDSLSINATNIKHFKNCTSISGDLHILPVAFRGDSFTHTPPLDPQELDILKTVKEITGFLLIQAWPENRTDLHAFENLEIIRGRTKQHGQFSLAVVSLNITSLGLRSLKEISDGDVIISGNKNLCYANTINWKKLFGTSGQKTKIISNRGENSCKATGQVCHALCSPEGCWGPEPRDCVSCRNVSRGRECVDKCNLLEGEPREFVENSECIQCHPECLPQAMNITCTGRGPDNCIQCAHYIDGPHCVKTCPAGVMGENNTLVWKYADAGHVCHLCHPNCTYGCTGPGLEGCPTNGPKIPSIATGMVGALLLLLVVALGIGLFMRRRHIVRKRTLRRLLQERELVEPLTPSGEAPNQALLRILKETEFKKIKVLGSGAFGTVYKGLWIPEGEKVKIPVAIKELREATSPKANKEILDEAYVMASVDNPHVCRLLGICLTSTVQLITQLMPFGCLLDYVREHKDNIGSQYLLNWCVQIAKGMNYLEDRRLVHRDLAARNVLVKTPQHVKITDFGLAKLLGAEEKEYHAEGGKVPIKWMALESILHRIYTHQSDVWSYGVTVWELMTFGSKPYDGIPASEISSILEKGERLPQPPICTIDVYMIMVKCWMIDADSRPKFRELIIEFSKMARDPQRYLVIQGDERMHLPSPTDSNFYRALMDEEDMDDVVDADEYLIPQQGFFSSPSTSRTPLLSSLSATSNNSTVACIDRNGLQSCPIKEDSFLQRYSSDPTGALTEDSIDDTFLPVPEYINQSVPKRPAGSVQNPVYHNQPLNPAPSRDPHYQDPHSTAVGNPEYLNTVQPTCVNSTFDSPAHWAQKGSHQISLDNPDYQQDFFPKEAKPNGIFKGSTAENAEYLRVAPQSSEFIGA
Experimental: as §1, §2
(i) Peptide/Kinase Mixtures for measurement of EGFR (ErbB1):
The 2×EGFR (ErbB1)/Tyr 04 mixture is prepared in 50 mM HEPES pH 7.5, 0.01% BRIJ-35, 10 mM MgCl2, 4 mM MnCl2, 1 mM EGTA, 2 mMDTT. The final 10 μL Kinase Reaction consists of 1.1-5.25 ng EGFR (ErbB1) and 2 μM Tyr 04 in 50 mM HEPES pH 7.5, 0.01% BRIJ-35, 10 mM MgCl2, 2 mM MnCl2, 1 mM EGTA, 1 mM DTT. After the 1 hour Kinase Reaction incubation, 5 μL of a 1:64 dilution of DevelopmentReagent B is added.
as §3, §4

BTK = target: T3, BTK (Homo sapiens, UniProt Q06187); assay: Z'-LYTE kinase inhibition assay (Invitrogen), BTK; format: biochemical; conditions: for inhibition at 0.041 µM: compound at 41 nM, 10 μM of ATP; for inhibition at 0.1 µM: compound at 100 nM, [ATP] = Km
T3 construct: purchased Invitrogen
T3 sequence (Q06187 whole entry): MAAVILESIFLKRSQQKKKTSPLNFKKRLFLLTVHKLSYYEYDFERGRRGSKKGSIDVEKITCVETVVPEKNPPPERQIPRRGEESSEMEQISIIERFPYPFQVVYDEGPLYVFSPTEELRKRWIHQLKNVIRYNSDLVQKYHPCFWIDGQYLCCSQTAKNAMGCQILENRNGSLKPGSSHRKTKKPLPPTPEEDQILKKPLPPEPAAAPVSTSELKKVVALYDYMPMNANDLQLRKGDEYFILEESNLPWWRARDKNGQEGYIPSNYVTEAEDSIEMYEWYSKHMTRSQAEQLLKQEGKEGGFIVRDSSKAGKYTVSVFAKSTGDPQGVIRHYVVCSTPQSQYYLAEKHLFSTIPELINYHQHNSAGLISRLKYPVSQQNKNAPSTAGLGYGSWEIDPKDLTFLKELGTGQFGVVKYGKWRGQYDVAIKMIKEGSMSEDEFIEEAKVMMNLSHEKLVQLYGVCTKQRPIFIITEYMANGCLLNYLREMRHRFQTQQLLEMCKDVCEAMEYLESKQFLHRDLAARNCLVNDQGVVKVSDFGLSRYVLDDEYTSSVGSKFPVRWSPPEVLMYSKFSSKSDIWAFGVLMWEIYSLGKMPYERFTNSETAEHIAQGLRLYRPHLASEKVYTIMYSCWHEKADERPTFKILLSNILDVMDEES
Experimental: as §1, §2
(v) Peptide/Kinase Mixtures for measurement of BTK:
The 2×BTK/Tyr 01 mixture is prepared in 50 mM HEPES pH 7.5, 0.01% BRIJ-35, 10 mM MgCl2, 1 mM EGTA. The final 10 μL Kinase Reaction consists of 1.04-10.4 ng BTK and 2 μM Tyr 01 in 50 mM HEPES pH 7.5, 0.01% BRIJ-35, 10 mM MgCl2, 1 mM EGTA. After the 1 hour Kinase Reaction incubation, 5 μL of a 1:256 dilution of Development Reagent B is added.
as §3, §4

A549 cells = assay: MTT cell growth inhibition assay, A549; format: cell-based; conditions: Homo sapiens, A549 cells (KRAS mutation), 72 h
Experimental: as §5, §6, §7

Compound	inhibition at 0.0137 µM (EGFR (ErbB1) T790M L858R) [%]	inhibition at 0.1 µM (EGFR (ErbB1) T790M L858R) [%]	IC50 (H1975 cells) [nM]	inhibition at 0.041 µM (EGFR (ErbB1)) [%]	inhibition at 0.1 µM (EGFR (ErbB1)) [%]	inhibition at 0.041 µM (BTK) [%]	inhibition at 0.1 µM (BTK) [%]	IC50 (A549 cells) [nM]
C=CC(=O)Nc1cc(Nc2ncc3cccc(-c4ccncc4)c3n2)ccc1N(C)CCN(C)C [Example C007, N-(2-((2-(dimethylamino)ethyl)(methyl)amino)-5-((8-(pyridin-4-yl)quinazolin-2-yl)amino)phenyl)acrylamide]	< 50	< 50	< 100	< 50	< 50	> 50	> 50	–
C=CC(=O)Nc1cc(Nc2ncc3cccc(-c4ccccc4Cl)c3n2)ccc1OCCN(C)C [Example C014, N-(5-((8-(2-chlorophenyl)quinazolin-2-yl)amino)-2-(2-(dimethylamino)ethoxy)phenyl)acrylamide]	< 50	< 50	< 100	< 50	< 50	–	> 50	–
C=CC(=O)Nc1cc(Nc2ncc3cccc(-c4cccc(Cl)c4)c3n2)ccc1OCCOC [Example C015, N-(5-((8-(3-chlorophenyl)quinazolin-2-yl)amino)-2-(2-methoxyethoxy)phenyl)acrylamide]	< 50	< 50	> 500	< 50	< 50	–	< 50	–
C=CC(=O)Nc1cc(Nc2ncc3cccc(-c4cccc(Cl)c4)c3n2)ccc1OC1CCN(C)CC1 [Example C013, N-(5-((8-(3-chlorophenyl)quinazolin-2-yl)amino)-2-((1-methylpiperidin-4-yl)oxy)phenyl)acrylamide]	> 50	< 50	100 to 500	< 50	< 50	–	> 50	–
C=CC(=O)Nc1cc(Nc2ncc3cccc(-c4ccccc4F)c3n2)ccc1N(C)CCN(C)C [Example C009, N-(2-((2-(dimethylamino)ethyl)(methyl)amino)-5-((8-(2-fluorophenyl)quinazolin-2-yl)amino)phenyl)acrylamide]	> 50	< 50	< 100	< 50	< 50	> 50	> 50	–
C=CC(=O)Nc1cc(Nc2ncc3cccc(-c4cncc(Cl)c4)c3n2)ccc1N(C)CCN(C)C [Example C021]	–	> 50	< 100	–	< 50	–	> 50	–
C=CC(=O)Nc1cc(Nc2ncc3cccc(-c4cccc(Cl)c4)c3n2)c(OC)cc1OC1CCN(C)C1 (stereo not shown) [Example C020, N-(5-((8-(3-chlorophenyl)quinazolin-2-yl)amino)-4-methoxy-2-((1-methylpyrrolidin-3-yl)oxy)phenyl)acrylamide]	–	> 50	< 100	–	> 50	–	> 50	100 to 500
C=CC(=O)Nc1cc(Nc2ncc3cccc(-c4cccc(Cl)c4)c3n2)c(OC)cc1N(C)CCN(C)C [Example C017, N-(5-((8-(3-chlorophenyl)quinazolin-2-yl)amino)-2-((2-(dimethylamino)ethyl)(methyl)amino)-4-methoxyphenyl)acrylamide]	–	> 50	< 100	–	> 50	–	> 50	100 to 500
C=CC(=O)Nc1cc(Nc2ncc3cccc(-c4cccc(Cl)c4)c3n2)ccc1OCCN(C)C [Example C012, N-(5-((8-(3-chlorophenyl)quinazolin-2-yl)amino)-2-(2-(dimethylamino)ethoxy)phenyl)acrylamide]	> 50	< 50	< 100	< 50	< 50	–	> 50	–
C=CC(=O)Nc1cc(Nc2ncc3cccc(Br)c3n2)ccc1N(C)CCN(C)C [Example C001, N-(5-((8-bromoquinazolin-2-yl)amino)-2-((2-(dimethylamino)ethyl)(methyl)amino)phenyl) acrylamide]	< 50	–	< 100	–	–	–	–	–
C=CC(=O)Nc1cc(Nc2ncc3cccc(-c4cccnc4)c3n2)ccc1N(C)CCN(C)C [Example C010, N-(2-((2-(dimethylamino)ethyl)(methyl)amino)-5-((8-(pyridin-3-yl)quinazolin-2-yl)amino)phenyl)acrylamide]	< 50	< 50	100 to 500	< 50	< 50	> 50	> 50	–
C=CC(=O)Nc1cc(Nc2ncc3cccc(-c4cccc(Cl)c4)c3n2)ccc1N1CCOCC1 [Example C016, N-(5-((8-(3-chlorophenyl)quinazolin-2-yl)amino)-2-morpholinophenyl)acrylamide]	< 50	< 50	< 100	< 50	< 50	–	< 50	–
C=CC(=O)N1CCCC(n2cnc3cnc(Nc4ccc(N5CCN(CCO)CC5)c(F)c4F)nc32)C1 (stereo not shown) [Example A024, 1-(3-(2-((2,3-difluoro-4-(4-(2-hydroxyethyl)piperazin-1-yl)phenyl)amino)-9H-purin-9-yl)piperidin-1-yl)prop-2-en-1-one]	–	< 50	–	–	< 50	–	< 50	–
C=CC(=O)Nc1cc(Nc2ncc3cccc(-c4cccc(Cl)c4)c3n2)ccc1N1CCN(C)CC1 [Example C011, N-(5-((8-(3-chlorophenyl)quinazolin-2-yl)amino)-2-(4-methylpiperazin-1-yl)phenyl)acrylamide]	< 50	< 50	< 100	< 50	< 50	–	> 50	–
